The record followed here is US11638719B2, “Product for obesity treatment” (YEDITEPE UNIVERSITESI, priority 2017, dated 2023).

Type in all cases: cell-based
Series [1] has as its system human adipose stem cells (hASCs). As to the kind of experiment: 'Oil Red O' staining of fat accumulation after adipocyte differentiation. The following applies: F68 0.05%, NaB 20 μg/ml, alone or combined; 10 days adipogenic differentiation; compared to positive control. Here is the method:
(§1) The cells were seeded into 6-well culture plates at 100,000 cells/well in an adipogenic differentiation medium. Content of the medium was as follows. 10% (v/v) FBS, 1 uM dexamethasone, 100 uM indomethacin (Sigma, USA), 500 uM IBMX (Calbiochem Merck Millipore, Germany) and 0.01 mg/mL insulin (Gibco, UK). 5 different groups were prepared; only F68, only NaB, F68 and NaB combination, PC and NC. Adipogenic differentiation was applied for 10 days by changing the medium every other day. While only DMEM, 10% (v/v) FBS and 1% (v/v) PSA were applied to the negative control group, the positive control group was cultured with adipogenic differentiation medium.
The ‘Oil Red O’ solution was prepared by dissolving 0.5 grams of ‘Oil Red O’ (Sigma, USA) in 100 ml of isopropanol. After being fixed with 2% paraformaldehyde (weight/volume) for 30 minutes, the cells were incubated in ‘Oil Red O’ solution (diluted in PBS at 6:4) for 1 hour. The cells were observed under light microscope.
Statistical analysis of the results was performed with the unpaired t-test and the graphs were drawn using GraphPad Prism 5 software Statistical significance was accepted as p<0.05. In addition, a graphical representation of the results obtained from immunocytochemistry and ‘Oil red O’ staining was obtained using the Adobe Creative Suite 6 program

The test system of series [2] is PPARγ, FABP4 and adiponectin gene expression in human adipose stem cells. As to the kind of experiment: RT-PCR analysis of adipogenesis-promoting gene expression after adipocyte differentiation. The following applies: F68 0.05%, NaB 20 μg/ml, alone or combined; 10 days adipogenic differentiation; compared to positive control; normalized to GAPDH. Here is the method: as §1
Following differentiation, RNA isolation was carried out using High Pure RNA Isolation Kit (Roche, Germany) in accordance with the manufacturer's instructions. After performance of cDNA synthesis (High Fidelity cDNA synthesis kit, Roche, Germany) from isolated RNA samples, RT-PCR was performed in three replicates using iCycler RT-PCR detection system (Bio-Rad, Hercules, Calif.). Synthesis levels were normalized to GAPDH.
For each sample the fold changes in the expression levels were determined using the method 2 (-Delta Delta C (t)).

In series [3] the test system is human adipose stem cells (hASCs). Nature of the series: Cytotoxicity analysis, cell viability by MTS assay. The following applies: NaB 20 μg/ml; for cell viability: MTS. Here is the method:
Cytotoxicity of Pluronic® F68 and NaB were dissolved and tested at 7 different concentrations in DMEM ([…], 0.7%, 0.5%, 0.3%, 0.1%, 0.05%, 0.01% (w/v) for F68 and 5, 10, 20, 50, 100, 200 and 300 ug/ml for NaB).
HASCs were seeded into 96-well culture plates (Corning Plasticware, Corning, N.Y., cat. no. CLS3360) at 5,000 cells/well. The next day, the cells were treated with F68 and NaB solutions that were prepared at different concentrations. In accordance with the manufacturer's instructions, cell viability was measured by the MTS assay (Promega, Southampton, UK CellTiter 96 AqueousOne solution). After 24, 48 and 72 hours of incubation, 10 ul of MTS reagent and 100 ul of DMEM medium were applied to the cells and then, after incubation at 37° C. for 2 hours, their absorbances at […] were measured with the ELISA plate reader (BioTek Instruments, Inc., Vt., USA).
(In general: Formazan colour is commonly taken as a measure of viable cells.)

Series [4] relates to PPARγ, FABP4 and adiponectin protein expression in human adipose stem cells. Nature of the series: Immunocytochemical analysis of PPARγ, FABP4 and adiponectin proteins after adipocyte differentiation. The following applies: F68 0.05%, NaB 20 μg/ml, alone or combined at the same ratios; compared to positive control. How it is done:
as §1
Human adipose stem cells were seeded into 48-well plates at 8,000 cells/well. Following the differentiation experiment, the cells were fixed in 2% (w/v) paraformaldehyde at 4° C. for 30 minutes and then blocked with 2% (v/v) goat serum (Sigma, USA) for 20 minutes. The cells incubated at 4° C. overnight with PPAR-γ (ab8934, Abcam, UK, 1: 100), FABP4 (SC-30088, Santa Cruz Biotechnology, Tex., USA, 1:100) and adiponectin (ab22554, Abcam, UK, 1:50) primary antibodies were then incubated with secondary antibodies (goat anti-rabbit IgG Alexa Fluor 488, goat anti-mouse IgGAlexaFluor 488, 1:1000) at 4° C. for 2 hours. […] Immunocytochemical analysis results were observed under fluorescence microscope (NiconEclipse TE200). […]

By cell viability is commonly meant a read-out of living cells in per cent, often relative to untreated cells. Take sodium pentaborate pentahydrate [NaB]: in series [1], the “amount of fat accumulation in the cells” value was “increased the amount of fat accumulation”. For the same substance, the “expression levels of PPARγ, FABP4 and adiponectin genes” value in series [2] was “increased significantly”. Besides, the cell viability in series [3] (end of day 1, hASCs) came out at 101%; in series [3] (end of day 2, hASCs), 106%; in series [3] (end of day 3, hASCs), 109%. For the same substance, the “cytotoxicity of the dosage used” value in series [3] (hASCs) is on record as “non-cytotoxic”. Further, the “PPARγ, FABP4 and adiponectin protein expression levels” value in series [4] is recorded as “higher than that of positive control”.
